Patent US11339175B2, “Thiol-based fluorescent probe for reactive species” (The Board of Trustees of the University of Illinois, priority 2018, dated 2022)

Experiments:
[1] = reported value; cited from earlier work
[2] = Stability in aqueous media: background fluorescence turn-on with vehicle control; type: physicochemical; details: PBS
Procedure: (§1) FIG. 4. The normalized fluorescence turn-on response of NitroxylBlue-1, -2, and -3 treated with a vehicle control and incubated in PBS at 37° C. are shown in black. The normalized fluorescence turn-on response of NitroxylBlue-1, -2, and -3 treated with 100 μM Angeli's salt are shown in green. All data was taken 10 minutes after treatment. Statistical significance measured with respect to the corresponding control. *, p<0.05; **, p<0.01. (n=3).
FIG. 5. The normalized fluorescence turn-on response of S-methyl NitroxylBlue treated with vehicle control (black) or Angeli's salt (100 μM) and incubated in PBS at 25° C. All data was taken 15 minutes after treatment.

[3] = Fluorescence turn-on response to HNO (Angeli's salt) in vitro
Procedure: (§2) FIG. 2. a) Fluorescence spectra of NitroxylFluor (2 μM) upon addition of AS (100 μM). b) Fluorescence kinetic trace of NitroxylFluor upon addition of 1 mM Angeli's salt, arrow indicates time of addition. c) Response of NitroxylFluor to various reactive oxygen, sulfur, and nitrogen species at concentrations of 100 μM (GSH was tested at 1 mM). Measurements were taken 15 minutes into treatment. d) Competition assays against various thiols. Control indicates no addition of Angeli's salt. Statistics are compared to the control. *, p<0.05; ***, p<0.001; p<0.0001. (n=3).
as §1
Angeli's salt was stored at −20° C. Stocks of Angeli's salt were added as a 10 mM solution in 10 mM KOH (for stability). Hydrogen peroxide was added as a 10 mM stock solution prepared by diluting 30% hydrogen peroxide in deionized water. Superoxide was added as a 1 mM stock solution of potassium superoxide in DMSO (for stability). […]

[4] = Competition assays against thiols for HNO; details: 10 μM probe, Angeli's salt 200 μM
Procedure: as §2, with “Statistics are compared to the control. *, p<0.05; ***, p<0.001; p<0.0001.” left out
In these experiments, 10 μM solutions of NitroxylFluor and various thiols such as L-cysteine (100 μM), N-acetyl-L-cysteine (100 μM), and GSH (1 mM) was treated with Angeli's salt (200 μM) (FIG. 2d).

MDA-MB-231 cells [5] = test: Confocal imaging of HNO in living cells; type: cell-based, human
Procedure: FIG. 3. Confocal microscopy images acquired by irradiation of MDA-MB-231 cells treated with 0 μM (vehicle control), 250 μM, 500 μM, 1000 μM Angeli's salt for 15 mins at 25° C. with a 488 nm laser. Images taken through a 40× oil immersion objective. Scale bar represents 20 μm. b) Quantification of imaging data. *, p<0.05; ***, p<0.001; p<0.0001.
FIG. 8. Representative time course imaging of MDA-MB-231 cells stained with 4 μM NitroxylFluor for 15 minutes followed by replacement with fresh PBS with no probe. Angeli's salt (200 μM) was added 5 minutes after PBS was replaced. Images were taken through a 40× oil immersion objective at 0, 10, and 20 mins after AS addition at 25° C. via irradiation with a 488 nm laser. Scale bar represents 20 μm.
MDA-MB-231 adenocarcinoma cells were acquired from Prof. David J. Shapiro (Biochemistry, UIUC). Cells were cultured in phenol-red free Dulbecco's modified eagle medium (DMEM, Corning) supplemented with 10% fetal bovine serum (FBS, Sigma Aldrich), and 1% penicillin/streptomycin (Corning). Cells were incubated at 37° C. with 5% CO2. Experiments were performed in 8-well chambered cover glasses (Lab-Tek, Thermo Scientific).
An 8-well chambered cover glass was seeded with 0.4 mL of the above-mentioned cells at a density of 200,000 cells/mL. Cells were imaged at roughly 80% confluency (24 hours after seeding). Media was removed from each well and cells were washed with 200 μL PBS. The PBS was removed from the wells and replaced with 198 μL. 2 μL of 200 μM NitroxylFluor in PBS was added and gently stirred before being allowed to incubate at 37° C. with 5% CO2 for 15 minutes. PBS was then removed from the wells and replaced with 195 μL, 190 μL, or 180 μL PBS. The remaining volume to 200 μL was filled with 10 mM Angeli's salt in 10 mM KOH (or 10 mM KOH in the vehicle control) to give final concentrations of 0.250 mM, 0.500 mM, or 1 mM Angeli's salt. […] 3-5 images of each well were taken and their mean fluorescence (as reported by ImageJ) was averaged to give an average value for each well. […]

[6] = Selectivity against reactive oxygen, sulfur and nitrogen species
Procedure: as §2
Angeli's salt was stored at −20° C. Stocks of Angeli's salt were added as a 10 mM solution in 10 mM KOH (for stability). […]
Hydroxyl radical was prepared by first preparing a 10 mM solution of Mohr's Salt (Fe(NH4)2(SO4)2.6H2O in 0.1 M HCl which was degassed by bubbling nitrogen gas for 20 minutes through the solution. A solution of the probe was made in buffer and degassed and the initial reading was taken. 10 μL of 10 mM Hydrogen Peroxide and Mohr's salt solution giving a final volume of 1 mL (100 μM hydroxyl radical) were added and allowed to incubate at 37° C. for the duration of the selectivity assay with a septum on the cuvette. Iron(II) was prepared via the same procedure as hydroxyl radical only hydrogen peroxide was not added. […]

MDA-MB-231 cells [7] = test: MTT cytotoxicity assay; type: cell-based, human
Procedure: FIG. 9. MTT assay to determine the cytotoxicity of NitroxylFluor at 4 μM over 3, 6, and 24 hours. Detailed protocol available on page 3 of this supporting information document.
A 96-well plate was seeded with 20,000 cells per well (200 μL of 150,000 cells/mL) and incubated at 37° C. with 5% CO2 for 24 h (˜70% confluent). […] After 3, 6, and 24 h the media was removed and replaced with […] 20:1 mixture of FBS-free DMEM and (3-(4,5-dimethylthiazol-2-yl)-2,5-diphenyl-tetrazolium bromide (MTT, 5 mg/mL stock in PBS). The cells were incubated for 4 h under the same conditions and then the medium was removed and replaced with DMSO ([…]). The absorbance of each well was recorded at 555 nm on a microplate reader. Viability was calculated by the absorbance relative to the vehicle control. Results pictured in FIG. 7.

[8] = Thiol pKa by UV/vis absorbance at 230 nm; type: physicochemical; details: Britton-Robinson Universal Buffer
Description: Assay was completed by measuring the absorbance at 230 nm as described by Tajc et al. (J Am Chem Soc 2004, 126, 10508). Each reading was taken in triplicate and averaged in the respective pH Britton-Robinson Universal Buffer.

Compound: N[C@@H](CCC(=O)N[C@@H](CS)C(=O)NCC(=O)O)C(=O)O [GSH, glutathione]
- reported pKa [1]: 9.42

Compound: Cc1cc(=O)oc2cc(OC(=O)C(C)(C)S)ccc12 [NB-2]
- background fluorescence turn-on (hydrolysis / alpha-thiolactonization) ([2]; vehicle control, 37° C., after 10 minutes): 1.6 fold
- fluorescence turn-on response with Angeli's salt ([3]; 100 μM Angeli's salt, PBS, 37° C., 10 minutes after treatment): 3.5 fold

Compound: CC(C)(S)C(=O)Oc1c(Cl)cc2c(c1Cl)Oc1cc(O)ccc1C21OCc2ccccc21 (stereo not shown) [NitroxylFluor]
- fluorescent turn-on response in presence of GSH ([4]; GSH 1 mM): 3.9 fold
- fluorescence increase in competition with L-cysteine ([4]; L-cysteine 100 μM): 16.2 fold
- fluorescence enhancement in competition with N-acetyl-L-cysteine ([4]; N-acetyl-L-cysteine 100 μM): 9.8 fold
- fluorescence enhancement at lowest Angeli's salt concentration (MDA-MB-231 cells [5]; 250 μM Angeli's salt, 15 mins): statistically significant enhancement
- fluorescence during time-lapse imaging (MDA-MB-231 cells [5]; 500 μM Angeli's salt, images every 1 min for 20 mins): gradual increase in the fluorescence
- fluorescence turn-on response in cells (MDA-MB-231 cells [5]; Angeli's salt 250 μM to 1000 μM, after 15 mins): dose-dependent fluorescence turn-on response
- fluorescent turn-on response on reaction with HNO ([3]; NitroxylFluor 2 μM, Angeli's salt 100 μM, in a matter of seconds): 16 fold
- change in fluorescence with reactive sulfur and nitrogen species ([6]; e.g. H2S, NO, 100 μM, 15-minute incubation at 37° C.): no change in fluorescence
- cross-reactivity with oxidants ([6]; oxidants incl. H2O2, 100 μM, 15 minutes): not observed
- cytotoxicity (MTT) versus DMSO control (MDA-MB-231 cells [7]; 4 μM, 3, 6, and 24 hours, n=3): No time point has significant difference from the DMSO control
- cytotoxicity (MTT) (MDA-MB-231 cells [7]; 10 μM probe, 3, 6, and 24 h): Cytotoxicity at any time point was not observe

Compound: CSC(C)(C)C(=O)Oc1ccc2c(C)cc(=O)oc2c1 [S-Methyl NitroxylBlue-2, reference compound]
- hydrolysis after incubation in aqueous media ([2]; 25° C., 15 minutes): No hydrolysis was observed

Compound: COC(=O)C(C)(C)S [compound 16, Methyl 2-mercapto-2-methylpropanoate]
- pKa [8]: 8.01
